Experimental data reported in patent US10259810B2, “N-sulfonylated pyrazolo[3,4-b]pyridin-6-carboxamides and method of use” (AbbVie S.à.r.l., priority 2015, dated 2019).

Molecular target: T1, ΔF508-CFTR (Homo sapiens, UniProt P13569, DEL508-508)
T1 construct: host or cells: CFBE41o-, doxycycline-inducible
Assay: CFTR cell surface levels using HRP-tagged ΔF508-CFTR expressing CFBE cells, intrinsic corrector capacity
Type: cell-based
Set-up: % Activation: concentration or dose not given beside the values
Conditions: HRP-tagged ΔF508-CFTR expressing CFBE41o- cells, compound alone (intrinsic corrector capacity), 20 hours at 33° C.; for EC50: read-out: EC50
Description: Measuring CFTR Cell Surface Levels Using HRP-Tagged ΔF508-CFTR Expressing CFBE Cells
The HRP-tagged ΔF508-CFTR cell assay measures the expression of CFTR-ΔF508 at the plasma membrane. CFTR-ΔF508 has a folding defect leading to absence of protein at the plasma membrane. This assay is used to evaluate the capacity of compounds to increase the expression of CFTR-ΔF508 at the plasma membrane. The CFTR-ΔF508 is tagged with HRP (horse radish peroxidase enzyme) within the ECL4 (Extracellular loop 4) of CFTR (Phuan, P.-W. et al. Synergy-based small-molecule screen using a human lung epithelial cell line yields ΔF508-CFTR correctors that augment VX-809 maximal efficacy. Mol. Pharmacol. 86, 42-51 (2014)). When HRP-tagged ΔF508-CFTR is present at the plasma membrane, the HRP enzyme activity can be measured. The amount of CFTR-ΔF508 that can be rescued to the plasma membrane is correlated with the amount of functional enzyme that can be measured.
There are several ways to measure the capacity of compounds to rescue CFTR-ΔF508 to the plasma membrane; either compounds are evaluated on their own and the impact on plasma membrane levels is measured or compounds are evaluated in combination with a co-corrector, i.e. a compound that rescues CFTR-ΔF508 to the plasma membrane but rescue can be enhanced by addition of compounds due to a complementary mode of action.
Activity of Compounds for their Intrinsic Corrector Capacity:
For this purpose doxycycline-inducible ΔF508-CFTR-HRP expressing CFBE4lo− cells (obtained from Gergely Lukacs, McGill University) were maintained in MEM (Gibco; 31095) supplemented with 10% fetal bovine serum (Hyclone; SV30160.03) under puromycin (3 μg/mL) and G418 selection (0.2 mg/mL). For compound testing, cells were seeded at 4000 cells/well in white 384-well plates (Greiner; 781080) in 50 μL medium containing 0.5 μg/mL doxycycline and incubated for 68 hours at 37° C., 5% CO2. On day four, […] compounds diluted in PBS were added to the plates at a final DMSO concentration of 0.1%. All compound plates contained negative controls (DMSO) and positive controls ([…] corrector, 3-[(2R,4R)-4-({[1-(2,2-difluoro-1,3-benzodioxol-5-yl)cyclopropyl]carbonyl}amino)-7-methoxy-3,4-dihydro-2H-chromen-2-yl]benzoic acid). Cell plates were incubated at 33° C., 5% CO2 for 20 hours. On day five, the cells were washed five times with phosphate-buffered saline, and HRP activity was assayed by the addition of 50 μL/well of HRP substrate (SuperSignal™ West Pico Chemiluminescent Substrate, Thermo Scientific; 34080). After incubation for 15 minutes in the dark, chemiluminescence was measured using a plate reader (EnVision®, Perkin Elmer). Raw data were normalized to percentage activity values using the equation: 100×(Sample−Negative control)/(Positive control−Negative Control).

T1 sequence (P13569 with tags, fused parts or gaps DEL508-508): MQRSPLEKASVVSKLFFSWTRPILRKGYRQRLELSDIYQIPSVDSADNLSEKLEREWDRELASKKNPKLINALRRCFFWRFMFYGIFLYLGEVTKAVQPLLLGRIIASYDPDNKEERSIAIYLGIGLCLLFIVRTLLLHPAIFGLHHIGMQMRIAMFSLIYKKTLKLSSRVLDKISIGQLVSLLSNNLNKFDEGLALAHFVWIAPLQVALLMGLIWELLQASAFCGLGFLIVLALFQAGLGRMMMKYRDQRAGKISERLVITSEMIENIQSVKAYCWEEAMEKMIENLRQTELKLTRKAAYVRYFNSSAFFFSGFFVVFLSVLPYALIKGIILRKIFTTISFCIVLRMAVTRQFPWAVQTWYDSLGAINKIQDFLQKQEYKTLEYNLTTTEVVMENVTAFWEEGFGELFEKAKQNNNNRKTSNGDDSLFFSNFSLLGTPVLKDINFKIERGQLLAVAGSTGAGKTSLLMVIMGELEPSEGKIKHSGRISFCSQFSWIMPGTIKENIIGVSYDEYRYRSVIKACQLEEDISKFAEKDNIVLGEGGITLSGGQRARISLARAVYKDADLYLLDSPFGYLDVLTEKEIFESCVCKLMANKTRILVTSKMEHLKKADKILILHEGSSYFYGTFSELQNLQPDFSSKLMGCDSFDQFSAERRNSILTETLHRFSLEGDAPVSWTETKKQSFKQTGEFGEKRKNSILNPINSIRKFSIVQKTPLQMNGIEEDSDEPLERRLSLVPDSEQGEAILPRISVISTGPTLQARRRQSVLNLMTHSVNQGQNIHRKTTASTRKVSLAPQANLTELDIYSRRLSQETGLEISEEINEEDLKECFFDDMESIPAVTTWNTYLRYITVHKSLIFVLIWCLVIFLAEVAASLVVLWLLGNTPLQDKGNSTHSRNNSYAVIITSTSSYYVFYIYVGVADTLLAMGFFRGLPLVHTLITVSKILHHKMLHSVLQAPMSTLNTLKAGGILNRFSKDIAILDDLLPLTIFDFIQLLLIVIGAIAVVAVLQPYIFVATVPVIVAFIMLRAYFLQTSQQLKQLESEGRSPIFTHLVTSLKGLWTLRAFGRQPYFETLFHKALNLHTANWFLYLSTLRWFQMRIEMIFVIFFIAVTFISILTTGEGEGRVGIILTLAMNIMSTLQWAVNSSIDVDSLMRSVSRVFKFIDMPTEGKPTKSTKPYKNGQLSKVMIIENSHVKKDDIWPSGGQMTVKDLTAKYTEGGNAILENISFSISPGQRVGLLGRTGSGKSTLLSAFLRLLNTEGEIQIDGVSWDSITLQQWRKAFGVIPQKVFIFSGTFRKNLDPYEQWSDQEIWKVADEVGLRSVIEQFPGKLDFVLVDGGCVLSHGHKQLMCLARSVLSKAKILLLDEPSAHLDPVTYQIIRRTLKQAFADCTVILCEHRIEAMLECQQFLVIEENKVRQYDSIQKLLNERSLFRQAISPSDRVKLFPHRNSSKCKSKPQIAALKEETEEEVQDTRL

Cc1nn(-c2ccccc2)c2nc(C(=O)NS(=O)(=O)C(F)(F)F)cc(-c3ccc(N4CCOCC4)cc3)c12 [Compound 3, 3-methyl-4-[4-(morpholin-4-yl)phenyl]-1-phenyl-N-(trifluoromethanesulfonyl)-1H-pyrazolo[3,4-b]pyridine-6-carboxamide] was tested, and the “% Activation” value was 53.08% and the EC50 was 3340 nM.

In the case of O=C(NS(=O)(=O)C1CC1)c1cc(OCC2CCOCC2)c2c(C3CCC3)nn(-c3ccccc3)c2n1 [Compound 333, 3-cyclobutyl-N-(cyclopropanesulfonyl)-4-[(oxan-4-yl)methoxy]-1-phenyl-1H-pyrazolo[3,4-b]pyridine-6-carboxamide], the “% Activation” value is reported as 180% and the EC50 is reported as 82.8 nM.

With CCS(=O)(=O)NC(=O)c1cc(OCC2CCOCC2)c2c(C3CCC3)nn(-c3ccccc3)c2n1 [Compound 335, 3-cyclobutyl-N-(ethanesulfonyl)-4-[(oxan-4-yl)methoxy]-1-phenyl-1H-pyrazolo[3,4-b]pyridine-6-carboxamide] the “% Activation” value was 171.65% and the EC50 was 150 nM.

CCOC(=O)N1CCC(NS(=O)(=O)NC(=O)c2cc(N3CCC(COC)CC3)c3c(C4CCC4)nn(-c4ccc(F)cc4)c3n2)CC1 [Compound 673, ethyl 4-[({3-cyclobutyl-1-(4-fluorophenyl)-4-[4-(methoxymethyl)piperidin-1-yl]-1H-pyrazolo[3,4-b]pyridine-6-carbonyl}sulfamoyl)amino]piperidine-1-carboxylate] was tested, and the “% Activation” value was 423.5% and the EC50 was 288 nM.

COCC1CCN(c2cc(C(=O)NS(=O)(=O)NC3COC3)nc3c2c(C2CCC2)nn3-c2ccc(F)cc2)CC1 [Compound 674, 3-cyclobutyl-1-(4-fluorophenyl)-4-[4-(methoxymethyl)piperidin-1-yl]-N-[(oxetan-3-yl)sulfamoyl]-1H-pyrazolo[3,4-b]pyridine-6-carboxamide] was tested, and the “% Activation” value was 389.5% and the EC50 was 156 nM.

With COCC1CCN(c2cc(C(=O)NS(=O)(=O)NC3CCOCC3)nc3c2c(C2CCC2)nn3-c2ccc(F)cc2)CC1 [Compound 675, 3-cyclobutyl-1-(4-fluorophenyl)-4-[4-(methoxymethyl)piperidin-1-yl]-N-[(oxan-4-yl)sulfamoyl]-1H-pyrazolo[3,4-b]pyridine-6-carboxamide] the “% Activation” value was 398.1% and the EC50 was 316 nM.

COCC1CCN(c2cc(C(=O)NS(=O)(=O)N3CCC(N4CCOCC4)CC3)nc3c2c(C2CCC2)nn3-c2ccc(F)cc2)CC1 [Compound 676, 3-cyclobutyl-1-(4-fluorophenyl)-4-[4-(methoxymethyl)piperidin-1-yl]-N-[4-(morpholin-4-yl)piperidine-1-sulfonyl]-1H-pyrazolo[3,4-b]pyridine-6-carboxamide] was tested, and the “% Activation” value was 251.1% and the EC50 was 251 nM.

For CCOC(=O)N1CCN(c2cc(C(=O)NS(=O)(=O)CCOC)nc3c2c(C2CCC2)nn3-c2ccc(F)cc2)CC1 [Compound 677, ethyl 4-{3-cyclobutyl-1-(4-fluorophenyl)-6-[(2-methoxyethanesulfonyl)carbamoyl]-1H-pyrazolo[3,4-b]pyridin-4-yl}piperazine-1-carboxylate], the “% Activation” value was 458.5% and the EC50 was 171 nM.

With CCOC(=O)N1CCN(c2cc(C(=O)NS(=O)(=O)N3CCOCC3)nc3c2c(C2CCC2)nn3-c2ccc(F)cc2)CC1 [Compound 678, ethyl 4-{3-cyclobutyl-1-(4-fluorophenyl)-6-[(morpholine-4-sulfonyl)carbamoyl]-1H-pyrazolo[3,4-b]pyridin-4-yl}piperazine-1-carboxylate] the “% Activation” value was 345.1% and the EC50 was 221 nM.

In the case of CCOC(=O)N1CCN(c2cc(C(=O)NS(C)(=O)=O)nc3c2c(C2CCC2)nn3-c2ccc(F)cc2)CC1 [Compound 679, ethyl 4-{3-cyclobutyl-1-(4-fluorophenyl)-6-[(methanesulfonyl)carbamoyl]-1H-pyrazolo[3,4-b]pyridin-4-yl}piperazine-1-carboxylate], the “% Activation” value is reported as 476.9% and the EC50 is reported as 132 nM.

With CCOC(=O)N1CCN(c2cc(C(=O)NS(=O)(=O)NC)nc3c2c(C2CCC2)nn3-c2ccc(F)cc2)CC1 [Compound 680, ethyl 4-{3-cyclobutyl-1-(4-fluorophenyl)-6-[(methylsulfamoyl)carbamoyl]-1H-pyrazolo[3,4-b]pyridin-4-yl}piperazine-1-carboxylate] the “% Activation” value was 351.2% and the EC50 was 339 nM.

In the case of CC(C)COC(=O)N1CCN(c2cc(C(=O)NS(C)(=O)=O)nc3c2c(C2CCC2)nn3-c2ccc(F)cc2)CC1 [Compound 681, 2-methylpropyl 4-{3-cyclobutyl-1-(4-fluorophenyl)-6-[(methanesulfonyl)carbamoyl]-1H-pyrazolo[3,4-b]pyridin-4-yl}piperazine-1-carboxylate], the “% Activation” value is reported as 366.2% and the EC50 is reported as 172 nM.

CC(C)COC(=O)N1CCN(c2cc(C(=O)NS(=O)(=O)N3CCOCC3)nc3c2c(C2CCC2)nn3-c2ccc(F)cc2)CC1 [Compound 682, 2-methylpropyl 4-{3-cyclobutyl-1-(4-fluorophenyl)-6-[(morpholine-4-sulfonyl)carbamoyl]-1H-pyrazolo[3,4-b]pyridin-4-yl}piperazine-1-carboxylate] was tested, and the “% Activation” value was 260.8% and the EC50 was 297 nM.

With COCCS(=O)(=O)NC(=O)c1cc(N2CCN(C(=O)OCC(C)C)CC2)c2c(C3CCC3)nn(-c3ccc(F)cc3)c2n1 [Compound 683, 2-methylpropyl 4-{3-cyclobutyl-1-(4-fluorophenyl)-6-[(2-methoxyethanesulfonyl)carbamoyl]-1H-pyrazolo[3,4-b]pyridin-4-yl}piperazine-1-carboxylate] the “% Activation” value was 354.9% and the EC50 was 253 nM.

In the case of CNS(=O)(=O)NC(=O)c1cc(N2CCN(C(=O)OCC(C)C)CC2)c2c(C3CCC3)nn(-c3ccc(F)cc3)c2n1 [Compound 684, 2-methylpropyl 4-{3-cyclobutyl-1-(4-fluorophenyl)-6-[(methylsulfamoyl)carbamoyl]-1H-pyrazolo[3,4-b]pyridin-4-yl}piperazine-1-carboxylate], the “% Activation” value is reported as 356.9% and the EC50 is reported as 115 nM.

CN1CCC2(CC1)CCN(c1cc(C(=O)NS(=O)(=O)N3CCOCC3)nc3c1c(C1CCC1)nn3-c1ccc(F)cc1)CC2 [Compound 685, 3-cyclobutyl-1-(4-fluorophenyl)-4-(9-methyl-3,9-diazaspiro[5.5]undecan-3-yl)-N-(morpholine-4-sulfonyl)-1H-pyrazolo[3,4-b]pyridine-6-carboxamide] was tested, and the “% Activation” value was 144.3% and the EC50 was 770 nM.
